Like-named read-outs stand apart in the source and are kept apart here.
What was measured:
barnyardgrass = test: Test B pre-/postemergence herbicide test; format: in vivo, Echinochloa crus-galli; conditions: for pest or weed control at 125 g/ha / pest or weed control at 500 g/ha: Echinochloa crus-galli
In short: (§1)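 Pre: seeds sown, then sprayed. Post: 1–4-leaf plants (2–18 cm) sprayed at the same time. Paddy: flooded, treated at 2-leaf stage. Formulation: non-phytotoxic solvent with surfactant. Greenhouse 13–15 days; visual 0–100 score relative to controls.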

cocklebur = test: Test B pre-/postemergence herbicide test; format: in vivo, Xanthium strumarium; conditions: for pest or weed control at 125 g/ha / pest or weed control at 500 g/ha: Xanthium strumarium
In short: as §1

redroot pigweed = test: Test A pre-/postemergence herbicide test; format: in vivo, Amaranthus retroflexus
In short: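 Pre: seeded sandy loam, directed soil spray, compound in non-phytotoxic solvent + surfactant. Post: 1–2-leaf plants (2–10 cm), sprayed to runoff. Greenhouse ~10 d; visual injury vs untreated, 0–100 scale.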

[1] = Postemergence, 125 g ai/ha, scale 0 (no effect) to 100 (complete control)
[2] = Postemergence, 500 g ai/ha, visual rating after 13 to 15 days, scale 0 (no effect) to 100 (complete control)
[3] = Preemergence, 500 g ai/ha, scale 0 to 100
[4] = Postemergence, 500 g ai/ha, 0 to 100 scale, 0 no effect, 100 complete control
[5] = Postemergence, 2000 g ai/ha, 0 to 100 scale, 0 no effect, 100 complete control
[6] = Preemergence, 500 g ai/ha, visual rating, 0 to 100 scale (0 no effect, 100 complete control)
[7] = postemergence, 125 g ai/ha, visual rating, scale 0 (no effect) to 100 (complete control)
[8] = preemergence, 125 g ai/ha, 0 to 100 scale, 0 is no effect, 100 is complete control
[9] = 500 g ai/ha, visual rating 0-100, 0 no effect, 100 complete control, preemergence
[10] = postemergence, 500 g ai/ha, visual rating, scale 0 (no effect) to 100 (complete control)
[11] = Preemergence, 2000 g ai/ha, visual rating, 0 to 100 scale (0 no effect, 100 complete control)
[12] = preemergence, 500 g ai/ha, visual injury, 0 to 100 scale (0 no effect, 100 complete control)
[13] = pre-emergence, 500 g ai/ha, visual rating, 0 = no effect, 100 = complete control, read-out: Plant response rating, Barnyardgrass
[14] = pre-emergence, 500 g ai/ha, visual rating, 0 = no effect, 100 = complete control, read-out: Plant response rating, Cocklebur
[15] = 125 g ai/ha, 0 is no effect, 100 is complete control, preemergence
[16] = Postemergence, 500 g ai/ha, scale 0 (no effect) to 100 (complete control)

CCn1nc(C(C)(C)C)cc1C(=O)Nc1cccc(C(=O)NCCF)c1 [Compound 45]
Barnyardgrass plant response rating (barnyardgrass; [1]): 20
Plant response rating, Barnyardgrass (barnyardgrass; [2]): 30
Barnyardgrass plant response rating (barnyardgrass; [3]): 100
Cocklebur plant response rating (cocklebur; [1]): 20
Plant response rating, Cocklebur (cocklebur; [2]): 80
Cocklebur plant response rating (cocklebur; [3]): 80
Plant response rating, Pigweed (redroot pigweed; [4]): 100
Plant response rating, Pigweed (redroot pigweed; [5]): 100
Pigweed plant response rating (redroot pigweed; [6]): 95
Pigweed plant response rating (redroot pigweed; Preemergence, 2000 g ai/ha, 0 to 100 scale, 0 no effect, 100 complete control): 100

CCn1nc(C(C)(C)C)cc1C(=O)Nc1cccc(C(=O)NC(C)C)c1 [Compound 51]
Plant response rating, Barnyardgrass (barnyardgrass; [2]): 80
Barnyardgrass plant response rating (barnyardgrass; [3]): 100
Barnyardgrass plant response rating (barnyardgrass; [7]): 60
Plant response rating, Barnyardgrass (barnyardgrass; [8]): 80
Plant response rating, Cocklebur (cocklebur; [2]): 80
Cocklebur plant response rating (cocklebur; [3]): 50
Cocklebur plant response rating (cocklebur; [7]): 70
Plant response rating, Cocklebur (cocklebur; [8]): 0
Pigweed plant response rating (redroot pigweed; Postemergence, 125 g ai/ha, 0 to 100 scale, 0 no effect, 100 complete control): 50
Plant response rating, Pigweed (redroot pigweed; [4]): 85
Pigweed plant response rating (redroot pigweed; [6]): 100
Pigweed plant response rating (redroot pigweed; preemergence, 125 g ai/ha, visual injury, 0 to 100 scale (0 no effect, 100 complete control)): 100

CCn1nc(C(C)(C)C)cc1C(=O)Nc1cccc(C(C)=O)c1 [Compound 122]
Plant response rating, Barnyardgrass (barnyardgrass; [9]): 90
Barnyardgrass plant response rating (barnyardgrass; [7]): 0
Barnyardgrass plant response rating (barnyardgrass; [10]): 20
Plant response rating, Barnyardgrass (barnyardgrass; [8]): 80
Plant response rating, Cocklebur (cocklebur; [9]): 70
Cocklebur plant response rating (cocklebur; [7]): 70
Cocklebur plant response rating (cocklebur; [10]): 90
Plant response rating, Cocklebur (cocklebur; [8]): 20
Pigweed plant response rating (redroot pigweed; [4]): 60
Plant response rating, Pigweed (redroot pigweed; [5]): 100
Pigweed plant response rating (redroot pigweed; [11]): 90
Pigweed plant response rating (redroot pigweed; [12]): 85

CCOc1cccc(NC(=O)c2cc(C(C)(C)C)nn2CC)c1 [Compound 136]
Plant response rating, Barnyardgrass (barnyardgrass; [9]): 100
Barnyardgrass plant response rating (barnyardgrass; [7]): 50
Barnyardgrass plant response rating (barnyardgrass; [10]): 90
Plant response rating, Barnyardgrass (barnyardgrass; [8]): 90
Plant response rating, Cocklebur (cocklebur; [9]): 10
Cocklebur plant response rating (cocklebur; [7]): 100
Cocklebur plant response rating (cocklebur; [10]): 100
Plant response rating, Cocklebur (cocklebur; [8]): 0
Pigweed plant response rating (redroot pigweed; [4]): 65
Plant response rating, Pigweed (redroot pigweed; [5]): 85
Pigweed plant response rating (redroot pigweed; [11]): 80
Pigweed plant response rating (redroot pigweed; [12]): 70

CCn1nc(C(C)(C)C)cc1C(=O)Nc1cc(C(=O)NCC2CC2)ccn1 [Compound 155]
Plant response rating, Barnyardgrass (barnyardgrass; [9]): 90
Barnyardgrass plant response rating (barnyardgrass; [7]): 10
Barnyardgrass plant response rating (barnyardgrass; [10]): 20
Plant response rating, Barnyardgrass (barnyardgrass; [8]): 60
Plant response rating, Cocklebur (cocklebur; [9]): 30
Cocklebur plant response rating (cocklebur; [7]): 60
Cocklebur plant response rating (cocklebur; [10]): 80
Plant response rating, Cocklebur (cocklebur; [8]): 0

CCN(CC)C(=O)c1cncc(NC(=O)c2cc(C(C)(C)C)nn2CC)c1 [Compound 261, 5-[[[3-(1,1-dimethylethyl)-1-ethyl-1H-pyrazol-5-yl]carbonyl]amino]-N,N-diethyl-3-pyridinecarboxamide]
pest or weed control at 125 g/ha (barnyardgrass; post-emergence, postemergence, 125 g ai/ha, visual rating, scale 0 (no effect) to 100 (complete control), read-out: Barnyardgrass plant response rating): 0%
pest or weed control at 500 g/ha (barnyardgrass; post-emergence, postemergence, 500 g ai/ha, visual rating, scale 0 (no effect) to 100 (complete control), read-out: Barnyardgrass plant response rating): 0%
pest or weed control at 125 g/ha (barnyardgrass; pre-emergence, 125 g ai/ha, 0 = no effect, 100 = complete control, read-out: Barnyardgrass plant response rating (0 to 100 scale)): 0%
pest or weed control at 500 g/ha (barnyardgrass; [13]): 20%
pest or weed control at 125 g/ha (cocklebur; post-emergence, postemergence, 125 g ai/ha, visual rating, scale 0 (no effect) to 100 (complete control), read-out: Cocklebur plant response rating): 0%
pest or weed control at 500 g/ha (cocklebur; post-emergence, postemergence, 500 g ai/ha, visual rating, scale 0 (no effect) to 100 (complete control), read-out: Cocklebur plant response rating): 10%
pest or weed control at 125 g/ha (cocklebur; pre-emergence, 125 g ai/ha, 0 = no effect, 100 = complete control, read-out: Cocklebur plant response rating (0 to 100 scale)): 0%
pest or weed control at 500 g/ha (cocklebur; [14]): 0%

CCOC(=O)c1cccc(NC(=O)c2nn(C(C)(C)C)nc2CC)c1 [Compound 360, ethyl 3-[[[2-(1,1-dimethylethyl)-5-ethyl-2H-1,2,3-triazol-4-yl]carbonyl]amino]benzoate]
Plant response rating (0 to 100 scale), Barnyardgrass (barnyardgrass; [15]): 10
pest or weed control at 125 g/ha (barnyardgrass; post-emergence, 125 g ai/ha, visual rating, scale 0 (no effect) to 100 (complete control), read-out: Barnyardgrass plant response rating): 0%
pest or weed control at 500 g/ha (barnyardgrass; post-emergence, postemergence, 500 g ai/ha, scale 0 to 100, 0 is no effect, 100 is complete control, read-out: Barnyardgrass plant response rating): 30%
pest or weed control at 500 g/ha (barnyardgrass; [13]): 40%
Plant response rating (0 to 100 scale), Cocklebur (cocklebur; [15]): 0
pest or weed control at 125 g/ha (cocklebur; post-emergence, 125 g ai/ha, visual rating, scale 0 (no effect) to 100 (complete control), read-out: Cocklebur plant response rating): 10%
pest or weed control at 500 g/ha (cocklebur; post-emergence, postemergence, 500 g ai/ha, scale 0 to 100, 0 is no effect, 100 is complete control, read-out: Cocklebur plant response rating): 20%
pest or weed control at 500 g/ha (cocklebur; [14]): 0%

CCn1nc(C(C)(C)C)cc1C(=O)Nc1cccc(OS(=O)(=O)CC)c1 [Compound 408]
Plant response rating (0 to 100 scale), Barnyardgrass (barnyardgrass; [15]): 70
Barnyardgrass plant response rating (barnyardgrass; [1]): 20
Barnyardgrass plant response rating (barnyardgrass; [16]): 40
Plant response rating (0 to 100 scale), Cocklebur (cocklebur; [15]): 0
Cocklebur plant response rating (cocklebur; [16]): 70
Cocklebur plant response rating (cocklebur; postemergence, 125 g ai/ha, scale 0 to 100): 60

Reference: patent publication US20060069132A1, “Azolecarboxamide herbicides” (priority 2004, published 2006)
